Source: PubChem BioAssay AID248 (DTP/NCI, 2004)
Where “and” joins values, the source holds several entries; their conditions need not be identical. Equal entries are not always repeated. Toxic doses and inconclusive results are not listed.

Tested on: L1210 leukemia ip in BDF1 mice, survival T/C
Assay: NCI In Vivo Anticancer Drug Screen. Data for tumor model L1210 Leukemia (intraperitoneal) in B6D2F1 (BDF1) mice
Settings: higher = longer survival
Method in brief: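 Survival endpoint. Drug-treated group vs vehicle group, expressed as T divided by C. Tumor passaged by transplantation.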

## C[CH2][Pb]([CH2]C)([CH2]C)[O]C(=O)C(Cl)(Cl)Cl
endpoint: mean survival time, dose: 0.39 mg/kg/injection, schedule: Q01DX009 (ip), vehicle: other
  T/C: 101 % of control and 105 % of control
endpoint: mean survival time, dose: 0.78 mg/kg/injection, schedule: Q01DX009 (ip), vehicle: other
  T/C: 102 % of control and 90 % of control
endpoint: mean survival time, dose: 1.5 mg/kg/injection, schedule: Q01DX001 (ip), vehicle: other
  T/C: 113 % of control
endpoint: mean survival time, dose: 1.5 mg/kg/injection, schedule: Q04DX002 (ip), vehicle: other
  T/C: 100 % of control
endpoint: mean survival time, dose: 1.56 mg/kg/injection, schedule: Q01DX009 (ip), vehicle: other
  T/C: 93 % of control
endpoint: mean survival time, dose: 3.0 mg/kg/injection, schedule: Q01DX001 (ip), vehicle: other
  T/C: 103 % of control
endpoint: mean survival time, dose: 3.0 mg/kg/injection, schedule: Q04DX002 (ip), vehicle: other
  T/C: 100 % of control
endpoint: mean survival time, dose: 6.0 mg/kg/injection, schedule: Q01DX001 (ip), vehicle: other
  T/C: 107 % of control
endpoint: mean survival time, dose: 6.0 mg/kg/injection, schedule: Q04DX002 (ip), vehicle: other
  T/C: 109 % of control
endpoint: mean survival time, dose: 6.25 mg/kg/injection, schedule: Q04DX003 (ip), vehicle: other
  T/C: 92 % of control
endpoint: mean survival time, dose: 12.0 mg/kg/injection, schedule: Q04DX002 (ip), vehicle: other
  T/C: 101 % of control
endpoint: mean survival time, dose: 12.5 mg/kg/injection, schedule: Q01DX001 (ip), vehicle: other
  T/C: 89 % of control
endpoint: mean survival time, dose: 12.5 mg/kg/injection, schedule: Q04DX003 (ip), vehicle: other
  T/C: 97 % of control
endpoint: mean survival time, dose: 25.0 mg/kg/injection, schedule: Q01DX001 (ip), vehicle: other
  T/C: 100 % of control
endpoint: mean survival time, dose: 25.0 mg/kg/injection, schedule: Q04DX002 (ip), vehicle: carboxymethylcellulose (CMC)
  T/C: 94 % of control and 102 % of control
endpoint: mean survival time, dose: 25.0 mg/kg/injection, schedule: Q04DX003 (ip), vehicle: other
  T/C: 87 % of control

## CC/C=C(/C)CCC
endpoint: mean survival time, dose: 100.0 mg/kg/injection, schedule: Q04DX003 (ip), vehicle: saline with Tween-80
  T/C: 93 % of control
endpoint: mean survival time, dose: 200.0 mg/kg/injection, schedule: Q04DX003 (ip), vehicle: saline with Tween-80
  T/C: 93 % of control
endpoint: mean survival time, dose: 400.0 mg/kg/injection, schedule: Q04DX003 (ip), vehicle: saline with Tween-80
  T/C: 98 % of control

## CC(=O)Nc1ccc(Cc2ccc(N=Cc3ccccc3)cc2)cc1
endpoint: mean survival time, dose: 100.0 mg/kg/injection, schedule: Q01DX001 (ip), vehicle: saline
  T/C: 101 % of control
endpoint: mean survival time, dose: 200.0 mg/kg/injection, schedule: Q01DX001 (ip), vehicle: saline
  T/C: 104 % of control
endpoint: mean survival time, dose: 400.0 mg/kg/injection, schedule: Q01DX001 (ip), vehicle: saline
  T/C: 98 % of control

## CCSc1nc(N)c(Br)c(Sc2nc(N)nc3nc[nH]c23)n1
endpoint: mean survival time, dose: 100.0 mg/kg/injection, schedule: Q01DX Z (ip), vehicle: methylcellulose (MC)
  T/C: 98 % of control

## Cn1c(N)nc2nc[nH]c2c1=S
endpoint: mean survival time, dose: 0.25 mg/kg/injection, schedule: Q01DX Z (ip), vehicle: carboxymethylcellulose (CMC)
  T/C: 104 % of control
endpoint: mean survival time, dose: 0.5 mg/kg/injection, schedule: Q01DX Z (ip), vehicle: carboxymethylcellulose (CMC)
  T/C: 101 % of control
endpoint: mean survival time, dose: 1.0 mg/kg/injection, schedule: Q01DX Z (ip), vehicle: carboxymethylcellulose (CMC)
  T/C: 104 % of control
endpoint: mean survival time, dose: 2.0 mg/kg/injection, schedule: Q01DX015 (ip), vehicle: carboxymethylcellulose (CMC)
  T/C: 103 % of control
endpoint: mean survival time, dose: 2.0 mg/kg/injection, schedule: Q01DX Z (ip), vehicle: carboxymethylcellulose (CMC)
  T/C: 107 % of control
endpoint: mean survival time, dose: 2.5 mg/kg/injection, schedule: Q01DX010 (ip), vehicle: saline
  T/C: 95 % of control and 91 % of control
endpoint: mean survival time, dose: 2.7 mg/kg/injection, schedule: Q01DX Z (ip), vehicle: methylcellulose (MC)
  T/C: 159 % of control
endpoint: mean survival time, dose: 4.0 mg/kg/injection, schedule: Q01DX015 (ip), vehicle: carboxymethylcellulose (CMC)
  T/C: 92 % of control
endpoint: mean survival time, dose: 4.0 mg/kg/injection, schedule: Q01DX Z (ip), vehicle: carboxymethylcellulose (CMC)
  T/C: 97 % of control and 106 % of control
endpoint: mean survival time, dose: 4.0 mg/kg/injection, schedule: Q01DX Z (ip), vehicle: methylcellulose (MC)
  T/C: 150 % of control
endpoint: mean survival time, dose: 5.0 mg/kg/injection, schedule: Q01DX009 (ip), vehicle: saline
  T/C: 101 % of control and 106 % of control
endpoint: mean survival time, dose: 5.0 mg/kg/injection, schedule: Q01DX010 (ip), vehicle: saline
  T/C: 97 % of control and 101 % of control
endpoint: mean survival time, dose: 6.0 mg/kg/injection, schedule: Q01DX Z (ip), vehicle: methylcellulose (MC)
  T/C: 123 % of control
endpoint: mean survival time, dose: 8.0 mg/kg/injection, schedule: Q01DX015 (ip), vehicle: carboxymethylcellulose (CMC)
  T/C: 107 % of control
endpoint: mean survival time, dose: 8.0 mg/kg/injection, schedule: Q01DX Z (ip), vehicle: carboxymethylcellulose (CMC)
  T/C: 118 % of control
endpoint: mean survival time, dose: 10.0 mg/kg/injection, schedule: Q01DX009 (ip), vehicle: saline
  T/C: 101 % of control and 104 % of control
endpoint: mean survival time, dose: 10.0 mg/kg/injection, schedule: Q01DX010 (ip), vehicle: saline
  T/C: 100 % of control and 91 % of control
endpoint: mean survival time, dose: 16.0 mg/kg/injection, schedule: Q01DX015 (ip), vehicle: carboxymethylcellulose (CMC)
  T/C: 104 % of control and 116 % of control
endpoint: mean survival time, dose: 16.0 mg/kg/injection, schedule: Q01DX Z (ip), vehicle: carboxymethylcellulose (CMC)
  T/C: 110 % of control
endpoint: mean survival time, dose: 20.0 mg/kg/injection, schedule: Q01DX009 (ip), vehicle: saline
  T/C: 106 % of control and 113 % of control
endpoint: mean survival time, dose: 20.0 mg/kg/injection, schedule: Q01DX010 (ip), vehicle: saline
  T/C: 94 % of control and 95 % of control and 116 % of control
endpoint: mean survival time, dose: 32.0 mg/kg/injection, schedule: Q01DX015 (ip), vehicle: carboxymethylcellulose (CMC)
  T/C: 123 % of control
endpoint: mean survival time, dose: 40.0 mg/kg/injection, schedule: Q01DX009 (ip), vehicle: saline
  T/C: 119 % of control
endpoint: mean survival time, dose: 40.0 mg/kg/injection, schedule: Q01DX010 (ip), vehicle: saline
  T/C: 97 % of control
endpoint: mean survival time, dose: 64.0 mg/kg/injection, schedule: Q01DX010 (iv), vehicle: saline
  T/C: 102 % of control
endpoint: mean survival time, dose: 64.0 mg/kg/injection, schedule: Q01DX015 (ip), vehicle: carboxymethylcellulose (CMC)
  T/C: 123 % of control
endpoint: mean survival time, dose: 80.0 mg/kg/injection, schedule: Q01DX010 (ip), vehicle: saline
  T/C: 97 % of control
endpoint: mean survival time, dose: 128.0 mg/kg/injection, schedule: Q01DX010 (iv), vehicle: saline
  T/C: 100 % of control
endpoint: mean survival time, dose: 128.0 mg/kg/injection, schedule: Q01DX015 (ip), vehicle: carboxymethylcellulose (CMC)
  T/C: 115 % of control
endpoint: mean survival time, dose: 256.0 mg/kg/injection, schedule: Q01DX010 (iv), vehicle: saline
  T/C: 108 % of control
endpoint: median survival time, dose: 5.0 mg/kg/injection, schedule: Q01DX009 (ip), vehicle: saline
  T/C: 105 % of control and 106 % of control
endpoint: median survival time, dose: 10.0 mg/kg/injection, schedule: Q01DX009 (ip), vehicle: saline
  T/C: 110 % of control
endpoint: median survival time, dose: 20.0 mg/kg/injection, schedule: Q01DX009 (ip), vehicle: saline
  T/C: 110 % of control and 112 % of control
endpoint: median survival time, dose: 40.0 mg/kg/injection, schedule: Q01DX009 (ip), vehicle: saline
  T/C: 120 % of control

## CCOc1ccccc1Cl
endpoint: mean survival time, dose: 100.0 mg/kg/injection, schedule: Q01DX009 (ip), vehicle: saline with Tween-80
  T/C: 97 % of control
endpoint: mean survival time, dose: 200.0 mg/kg/injection, schedule: Q01DX009 (ip), vehicle: saline with Tween-80
  T/C: 102 % of control
endpoint: mean survival time, dose: 400.0 mg/kg/injection, schedule: Q01DX009 (ip), vehicle: saline with Tween-80
  T/C: 95 % of control

## CN(C)C(=O)CCl
endpoint: mean survival time, dose: 100.0 mg/kg/injection, schedule: Q01DX009 (ip), vehicle: saline
  T/C: 96 % of control
endpoint: mean survival time, dose: 200.0 mg/kg/injection, schedule: Q01DX009 (ip), vehicle: saline
  T/C: 98 % of control
endpoint: mean survival time, dose: 400.0 mg/kg/injection, schedule: Q01DX009 (ip), vehicle: saline
  T/C: 104 % of control

## CCc1ccccc1NC(=O)C(Cl)Cl
endpoint: mean survival time, dose: 100.0 mg/kg/injection, schedule: Q04DX002 (ip), vehicle: Klucel (hydroxypropylcellulose) (HPC)
  T/C: 100 % of control
endpoint: mean survival time, dose: 200.0 mg/kg/injection, schedule: Q04DX002 (ip), vehicle: Klucel (hydroxypropylcellulose) (HPC)
  T/C: 103 % of control
endpoint: mean survival time, dose: 400.0 mg/kg/injection, schedule: Q04DX002 (ip), vehicle: Klucel (hydroxypropylcellulose) (HPC)
  T/C: 100 % of control
